Positions of bridges follow the written chain, without caps; N, C: chain ends. Non-standard residues stand in square brackets, D forms with d. Residues, ends and D or L forms follow the SMILES beside them. Phe(4-NO2) = N[C@@H](Cc1ccc([N+](=O)[O-])cc1)C(=O)O; dPhe(4-NO2) = N[C@H](Cc1ccc([N+](=O)[O-])cc1)C(=O)O; 2Nal = N[C@@H](Cc1ccc2ccccc2c1)C(=O)O; Orn = NCCC[C@H](N)C(=O)O
Tests used:
[1] = biological target: T1, rat somatostatin receptor subtype 2 (SSTR2) (Rattus norvegicus, UniProt P30680); test: Yeast assay, somatostatin agonist activity (growth zone of modified yeast cells on histidine-free agar); type: cell-based; conditions: rating on a scale of 1-5 from zone of growing cells; S. Cerevisiae LY364
T1 construct: expressed in transfected cells; host or cells: Saccharomyces cerevisiae LY364
T1 sequence (P30680 whole entry): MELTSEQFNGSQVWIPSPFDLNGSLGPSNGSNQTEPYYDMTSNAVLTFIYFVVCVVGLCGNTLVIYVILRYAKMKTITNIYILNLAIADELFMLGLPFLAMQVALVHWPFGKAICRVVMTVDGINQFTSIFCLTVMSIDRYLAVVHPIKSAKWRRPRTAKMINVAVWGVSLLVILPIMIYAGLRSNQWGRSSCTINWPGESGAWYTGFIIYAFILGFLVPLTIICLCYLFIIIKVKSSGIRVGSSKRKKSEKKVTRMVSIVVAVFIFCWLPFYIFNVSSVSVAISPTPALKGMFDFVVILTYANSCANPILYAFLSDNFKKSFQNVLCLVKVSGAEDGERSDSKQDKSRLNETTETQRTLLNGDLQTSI
Description: In this evaluation, yeast cells which have been specifically modified to functionally express rat somatostatin receptor subtype 2 (SSTR2) on their cell surfaces are used. S. Cerevisiae LY364 cells are plated in a standard synthetic agar medium which lacks histidine. In the absence of a somatostatin receptor agonist, the auxotrophic (his3) cells are unable to grow. In the presence of somatostatin, or a somatostatin agonist, the expression of an enzyme (His3p: imidazole-glycerol phosphate dehydratase) which is essential for histidine biosynthesis is induced. The cells become competent to produce histidine, resulting in a zone of growing cells around the applied test compound. The zone is measured and the test compound is given an agonist rating on a scale of 1-5 wherein 1 is minimum agonist activity and 5 is maximum agonist activity.
SCD-ura-trp: • 1) To 500 mL water add: • 1.7 g YNB without amino acids and (NH4)2SO4 • 5.0 g (NH4)2SO4 • 0.7 g CSM-ura-trp • 2) To additional 500 mL water add: 20 g Dextrose • 3) Autoclave separately. Mix.
SCL-ura-trp: • 1) To 500 mL water add: • 1.7 g YNB without amino acids and (NH4)2SO4 • 5.0 g (NH4)2SO4 • 0.7 g CSM-ura-trp • 2) To additional 500 mL water add: 30 mL Lactic Acid • 3) Autoclave separately. Mix.
SCG-ura-trp: • 1) To 500 mL water add: • 1.7 g YNB without amino acids and (NH4)2SO4 • 5.0 g (NH4)2SO4 • 0.7 g CSM-ura-trp • 2) To additional 500 mL water add: 30 g D-Galactose • 3) Autoclave separately. Mix.
SCG-ura-trp-his agar medium, pH 6.8: • 1) To 500 mL water add: • 1.7 g YNB without amino acids and (NH4)2SO4 • 5.0 g (NH4)2SO4 • 0.7 g CSM-ura-trp-his • Stirring Bar • 2) Adjust pH to 6.8-6.9 by dropwise addition of conc. NH4OH • 3) To additional 500 mL water add: 30 g D-Galactose, 20 g Agar • 4) Autoclave separately. • 5) Stir to mix thoroughly. • 6) Equilibrate temperature to 55°C. YNB without amino acids and (NH4)2SO4, CSM-ura-trp, and CSM-ura-trp-his are manufactured by Bio101. Ammonium sulfate ((NH4)2SO4), Dextrose (D-glucose), D-Galactose, and Lactic Acid are manufactured by Sigma.
(§1) • 1) Inoculate 2 mL SCD-ura-trp liquid medium in Falcon 2051 tube with a single colony taken from a plate containing LY364 (MATa ura3-52 leu2 his3 trp1 lys2 ade2 far1:: LYS2 fus1:: FUS1-HIS3 gpal::hisG sst2::ADE2 bearing the SSTR2 expression plasmid, pJH2, and the G protein expression plasmid, pLP82)cells. • 2) Incubate overnight in a roller drum at 30°C.
(§2) Day 2. • 1) Harvest the cells by centrifugation (3 krpm, 5 min, room temp). • 2) Re-suspend with 5 mL of sterile water. • 3) Harvest again by centrifugation. • 4) Re-suspend in 5 mL SCL-ura-trp liquid medium. • 5) Incubate for 6 hours in a roller drum at 30°C. • 6) Harvest the cells again by centrifugation. • 7) Re-suspend in 5 mL SCG-ura-trp liquid medium. • 8) Incubate overnight in a roller drum at 30°C.
(§3) Day 3. • 1) Autoclave SCG-ura-trp-his pH 6.8 agar medium. • 2) Cool to 55°C in water bath. • 3) Add 1 mL of LY364 culture to 1 liter of agar medium. • 4) Stir vigorously for 1 min. • 5) Pour 150 mL each into five 500 cm^2 plates. • 6) Allow to cool on level surface. • 7) Apply test compound.
(§4) On day 3, add 5µL 1 mg/mL S-14 to each plate. Day 5. Begin checking plates for growth around applied compounds. Day 7. Growth in response to somatostatin should be readily observable. Rate extent of growth or inhibition of growth according to rating scale described hereinabove.

[2] = biological target: T1, rat somatostatin receptor subtype 2 (SSTR2); test: Yeast assay, somatostatin antagonist activity (zone of no growth in presence of S-14); type: cell-based; design: key: 1 is minimum antagonist activity; 5 is maximum antagonist activity; -: When no activity is observed, the result is indicated by a dash; conditions: rating on a scale of 1-5 from zone of no growth; 5µL of 1 mg/mL S-14 added to each plate; S. Cerevisiae LY364
Description: To evaluate the somatostatin antagonist activity of a test compound, the above procedure is followed except on day 3, 5µL of 1 mg/mL of somatostatin, S-14, is added to each plate, before applying the test compound. If the test compound is an antagonist of somatostatin, then a zone of no growth will appear within the cell growth zone. This zone of no growth is measured and the test compound is given an antagonist rating on a scale of 1-5 wherein 1 is minimum antagonist activity and 5 is maximum antagonist activity.
The results are shown in Table I. When no activity is observed, the result is indicated by a dash.
as §1, §2, §3, §4

SSTR2 = SSTR2 (Rattus norvegicus, UniProt P30680); test: Competitive binding, displacement of [125I]Tyr11 S-14; design: expressed in transfected cells; conditions: [125I]Tyr11 S-14 250 pM, room temperature 2 hours; for IC50: membrane protein, read-out: SSTR2 Binding Affinity IC50; for Ki: calculated by Cheng and Prusoff, read-out: SSTR2 Binding Affinity Ki
SSTR2, sequence (P30680 whole entry): as above
Description: In this evaluation the concentration of test compound required to displace 50% of somatostatin, SRIF, from the SRIF receptor subtypes expressed in mammalian cells is measured, i.e., the concentration required to inhibit 50% of [^125I] Tyr^11 S-14 (Amersham) (IC50) from binding to the SRIF receptor subtypes.
Radiolabeled SRIF is mixed with pituitary cells, the test compound is added, the mixture is incubated and the radioactivity is measured as compared to control. Reduced radioactivity indicates successful competitive binding of the test compound to the pituitary cell receptor. The concentration of the test compound in nanomolar units required to displace 50% of SRIF from the pituitary cell receptor is calculated and reported in Table II as the IC50 value. Also calculated is the inhibitory constant, Ki.
Tyr^11S-14 (150,000 cpm at 2000 Ci/mmole, 250 pM final concentration). The binding reaction is initiated by adding 2-60µg of membrane protein in a 170 µL volume. Final reaction volume is 200 µl/well. All incubations are carried out at room temperature for 2 hours. Free radioligand is separated from bound ligand by rapid filtration through a glass fiber filter (IH-201-HA) using an Inotech cell harvester. The filter is then washed several times with cold (4°C) binding buffer lacking BSA and protease inhibitors prior to counting in an LKB gamma master counter (78% efficiency). Whatman GFC filters presoaked in 0.3% polyethylenimine (to decrease background) are used.
The IC50 values and Ki values are calculated using the well-known methods described by Y. Cheng and W. H. Prusoff, Biochem. Pharmacol. 22, 3099-3108 (1973), incorporated herein by reference thereto.

| SMILES | Yeast Assay Agonist [1] | Yeast Assay Antagonist [2] | IC50 (SSTR2) [nM] | Ki (SSTR2) [nM] |
| --- | --- | --- | --- | --- |
| CC(=O)N[C@@H](Cc1ccc(I)cc1)C(=O)N[C@@H]1CSSC[C@@H](C(=O)N[C@H](Cc2ccc(O)cc2)C(N)=O)NC(=O)[C@H]([C@@H](C)O)NC(=O)[C@H](CCCCN)NC(=O)[C@@H](Cc2c[nH]c3ccccc23)NC(=O)[C@H](Cc2ccc(O)cc2)NC1=O | - | 4 | 6 | 2.8 |
| NCCCC[C@@H]1NC(=O)[C@@H](Cc2c[nH]c3ccccc23)NC(=O)[C@H](Cc2ccc(O)cc2)NC(=O)[C@H](NC(=O)[C@@H](N)Cc2ccc([N+](=O)[O-])cc2)CSSC[C@@H](C(=O)N[C@@H](Cc2ccc3ccccc3c2)C(N)=O)NC(=O)[C@H](CO)NC1=O (H-[Phe(4-NO2)][dC]Y[dW]KSC[2Nal]-NH2; disulfide 2-7) |  |  | 10 | 4.44 |
| CC(=O)N[C@@H](Cc1ccc(I)cc1)C(=O)N[C@@H]1CSSC[C@@H](C(=O)N[C@@H](Cc2ccc(O)cc2)C(N)=O)NC(=O)[C@H]([C@@H](C)O)NC(=O)[C@H](CCCCN)NC(=O)[C@@H](Cc2c[nH]c3ccccc23)NC(=O)[C@H](Cc2ccc(O)cc2)NC1=O | - | 1 |  |  |

Next, values leading:

| Yeast Assay Agonist [1] | Yeast Assay Antagonist [2] | IC50 (SSTR2) [nM] | Ki (SSTR2) [nM] | SMILES |
| --- | --- | --- | --- | --- |
| - | 1 |  |  | C[C@@H](O)[C@@H]1NC(=O)[C@H](CCCCN)NC(=O)[C@@H](Cc2c[nH]c3ccccc23)NC(=O)[C@H](Cc2ccc(O)cc2)NC(=O)[C@H](NC(=O)[C@@H](N)Cc2ccc3ccccc3c2)CSSC[C@@H](C(=O)N[C@@H](Cc2ccc(O)cc2)C(N)=O)NC1=O (H-[2Nal][dC]Y[dW]KTCY-NH2; disulfide 2-7 (inferred); N-terminus assumed) |
|  |  | 0.6 | 0.26 | C[C@@H](O)[C@@H]1NC(=O)[C@H](CCCCN)NC(=O)[C@@H](Cc2c[nH]c3ccccc23)NC(=O)[C@H](Cc2ccc(O)cc2)NC(=O)[C@H](NC(=O)[C@@H](N)Cc2ccc(I)cc2)CSSC[C@@H](C(=O)N[C@@H](Cc2ccc(O)cc2)C(N)=O)NC1=O |
|  |  | 113 | 50.2 | CC(C)[C@@H]1NC(=O)[C@H](CCCN)NC(=O)[C@@H](Cc2c[nH]c3ccccc23)NC(=O)[C@H](Cc2ccc(O)cc2)NC(=O)[C@H](NC(=O)[C@@H](N)Cc2ccc([N+](=O)[O-])cc2)CSSC[C@@H](C(=O)N[C@@H](Cc2ccc(O)cc2)C(N)=O)NC1=O (H-[Phe(4-NO2)][dC]Y[dW][Orn]VCY-NH2; disulfide 2-7) |
|  |  | 39 | 17.3 | CC(C)[C@@H]1NC(=O)[C@H](CCCCN)NC(=O)[C@@H](Cc2c[nH]c3ccccc23)NC(=O)[C@H](Cc2ccc(O)cc2)NC(=O)[C@H](NC(=O)[C@H](N)Cc2ccc([N+](=O)[O-])cc2)CSSC[C@@H](C(=O)N[C@@H](Cc2ccc(O)cc2)C(N)=O)NC1=O (H-[dPhe(4-NO2)][dC]Y[dW]KVCY-NH2; disulfide 2-7) |
| - | 2 |  |  | C[C@@H](O)[C@@H]1NC(=O)[C@H](CCCNC(=N)N)NC(=O)[C@@H](Cc2c[nH]c3ccccc23)NC(=O)[C@H](Cc2ccc(O)cc2)NC(=O)[C@H](NC(=O)[C@@H](N)Cc2ccc([N+](=O)[O-])cc2)CSSC[C@@H](C(=O)N[C@@H](Cc2ccc(O)cc2)C(N)=O)NC1=O (H-[Phe(4-NO2)][dC]Y[dW]RTCY-NH2; disulfide 2-7 (inferred)) |
